Where only a bound is given, the exact number is not on record here.

A short description of experiment [1]: Displacement of [3H]-SCH23390 from dopamine D1 receptor (unknown origin) expressed in sheep striatum membranes after […] by scintillation counting analysis. On the technique in general: In a radioligand displacement assay an active substance lowers the binding of a labelled ligand.
A short description of experiment [2]: Displacement of [3H]-R-PIA from adenosine A1 receptor (unknown origin) expressed in sheep striatum membranes after 2 hrs by scintillation counting analysis.
Experiment [3] is described as follows: Displacement of [3H]-YM09151-2 from dopamine D2 receptor (unknown origin) expressed in sheep striatum membranes assessed as high affinity constant after 2 hrs by scintillation counting analysis.
Experiment [4] can be described thus: Displacement of [3H]-YM09151-2 from dopamine D2 receptor (unknown origin) expressed in sheep striatum membranes assessed as low affinity constant after 2 hrs by scintillation counting analysis.

Usually Kd stands for the constant that tells how readily two partners part at equilibrium. Regarding `CCCC[C@H](NC(=O)[C@H]1CC[C@@H]2c3[nH]c4ccccc4c3CCN2C1)C(=O)N[C@@H](Cc1ccc(O)cc1)C(=O)N[C@@H](CCCCN)C(N)=O`, the dissociation constant (Kd) is 1200 nM in experiment [1], above 100000 nM in experiment [2] and 4700 nM in experiment [3].
Consider `CCCC[C@H](NC(=O)[C@H]1CC[C@@H]2c3[nH]c4ccccc4c3CCN2C1)C(=O)N[C@@H](Cc1ccc(F)c(F)c1)C(=O)N[C@@H](CCCCN)C(N)=O`, for which the Kd was 1300 nM in experiment [1], above 100000 nM in experiment [2], 8000 nM in experiment [4] and 190 nM in experiment [3].

The values are drawn from BindingDB's records for doi:10.1016/j.ejmech.2015.04.052 (University of Barcelona, 2015).
